Laboratory results taken from patent US20150045266A1, “IONIC LIQUID AS LUBRICATING OIL BASE STOCKS, COBASE STOCKS AND MULTIFUNCTIONAL FUNCTIONAL FLUIDS” (ExxonMobil Research and Engineering Company, priority 2012, published 2015).

Assay: Solubility in di(tridecyl) adipate ester base stock (Esterex A51)
Assay type: physicochemical
Conditions: Group V ester base stock
From the text: The ionic liquids of Examples 5, 7, 9, 11 and 13 have good viscosity index.

Row | Compound | solubility in di(tridecyl) adipate ester base stocks
1 | CCCCCCCCCCCCCCCC[n+]1ccn(CCCC)c1 [Example 11, 1-butyl-3-hexadecylimidazolium bis(trifluoromethanesulfonyl)imide] | highly soluble
2 | CCCCCCCCCCn1cc[n+](C)c1 [Example 5, 1-methyl-3-decylimidazolium bis(trifluoromethanesulfonyl)imide] | highly soluble
3 | CCCCCCCCCCCCCCCCn1cc[n+](C)c1 [Example 7, 1-methyl-3-hexadecylimidazolium bis(trifluoromethanesulfonyl)imide] | highly soluble

Now from value to compound:

Row | solubility in di(tridecyl) adipate ester base stocks | Compound
4 | highly soluble | CCCCCCCCCC[n+]1ccn(Cc2ccccc2)c1 [Example 13, 1-benzyl-3-decylimidazolium bis(trifluoromethanesulfonyl)imide]
5 | highly soluble | CCCCCCCCCC[n+]1ccn(CCCC)c1 [Example 9, 1-butyl-3-decylimidazolium bis(trifluoromethanesulfonyl)imide]
